Target: T1, recombinant human GBA (Homo sapiens, UniProt P04062)
T1 construct: purchased
T1 sequence (P04062 40-536): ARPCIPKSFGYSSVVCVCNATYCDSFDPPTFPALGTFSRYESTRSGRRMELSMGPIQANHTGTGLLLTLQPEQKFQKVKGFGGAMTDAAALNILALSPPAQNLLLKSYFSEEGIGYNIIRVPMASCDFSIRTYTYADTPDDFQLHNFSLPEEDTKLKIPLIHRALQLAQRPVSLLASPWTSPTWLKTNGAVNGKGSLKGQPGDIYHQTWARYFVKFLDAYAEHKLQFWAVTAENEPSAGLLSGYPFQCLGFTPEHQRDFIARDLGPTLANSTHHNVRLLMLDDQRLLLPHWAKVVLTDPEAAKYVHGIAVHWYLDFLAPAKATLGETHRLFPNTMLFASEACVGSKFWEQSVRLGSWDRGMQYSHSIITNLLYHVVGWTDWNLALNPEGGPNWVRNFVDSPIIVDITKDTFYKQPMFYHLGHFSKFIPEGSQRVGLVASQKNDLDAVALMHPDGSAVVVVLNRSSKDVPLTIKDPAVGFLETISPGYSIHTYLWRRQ
Assay: Beta-glucocerebrosidase (GBA) inhibition assay
Type: biochemical
Conditions: 4-methylumbelliferyl-beta-D-pyranoside substrate, 4-PL curve fit
Method: Beta-glucocerebrosidase (GBA, also referred to glucosylceramidase): To analyze inhibitory effects of a test compound, commercially available recombinant human GBA was incubated with multiple dilutions of test compound for 60 minutes at 37° C. 4-methylumbelliferyl-beta-D-pyranoside was then introduced to the mixture as substrate. Following incubation for 60 minutes at 37° C., 1,4-methyllumbelliferone was generated, and the reaction was stopped with the stop solution (0.5 M glycine; 0.3 M NaOH, pH 10). 1,4-methyllumbelliferone was detected by fluorescence (excitation at 365 nm, emission at 440 nm). Relative fluorescence is compared to untreated enzymatic activity and test compound concentration is then plotted as a function of percent inhibition. The IC50 was determined using a 4-PL curve fit as the measure of relative inhibitory activity of each test compound (see Table 4).

SMILES | IC50 [µM]
[N-]=[N+]=Nc1ccc(NCCCCCCN[C@H]2C[C@](O)(CO)[C@@H](O)[C@H](O)[C@H]2O)c([N+](=O)[O-])c1 [Compound 2, (1S,2S,3R,4S,5S)-5-((6-((4-azido-2-nitrophenyl)amino)hexyl)amino)-1-(hydroxymethyl)cyclohexane-1,2,3,4-tetraol] | 139
COCCCCCCCCCN[C@H]1C[C@](O)(CO)[C@@H](O)[C@H](O)[C@H]1O [Compound 3, (1S,2S,3R,4S,5S)-1-(hydroxymethyl)-5-((9-methoxynonyl)amino)cyclohexane-1,2,3,4-tetraol] | > 1000
O=[N+]([O-])c1cc(-n2cnnn2)ccc1NCCCCCCN[C@H]1C[C@](O)(CO)[C@@H](O)[C@H](O)[C@H]1O [Compound 4, (1S,2S,3R,4S,5S)-1-(hydroxymethyl)-5-((6-((2-nitro-4-(1H-tetrazol-1-yl)phenyl)amino)hexyl)amino)cyclohexane-1,2,3,4-tetraol] | > 1000
O=[N+]([O-])c1cc(-n2nccn2)ccc1NCCCCCCN[C@H]1C[C@](O)(CO)[C@@H](O)[C@H](O)[C@H]1O [Compound 5, (1S,2S,3R,4S,5S)-1-(hydroxymethyl)-5-((6-((2-nitro-4-(2H-1,2,3-triazol-2-yl)phenyl)amino)hexyl)amino)cyclohexane-1,2,3,4-tetraol] | 143
O=[N+]([O-])c1cc(-n2ccnn2)ccc1NCCCCCCN[C@H]1C[C@](O)(CO)[C@@H](O)[C@H](O)[C@H]1O [Compound 6, (1S,2S,3R,4S,5S)-1-(hydroxymethyl)-5-((6-((2-nitro-4-(1H-1,2,3-triazol-1-yl)phenyl)amino)hexyl)amino)cyclohexane-1,2,3,4-tetraol] | 776
O=[N+]([O-])c1cc(-c2ncccn2)ccc1NCCCCCCN[C@H]1C[C@](O)(CO)[C@@H](O)[C@H](O)[C@H]1O [Compound 7, (1S,2S,3R,4S,5S)-1-(hydroxymethyl)-5-((6-((2-nitro-4-(pyrimidin-2-yl)phenyl)amino)hexyl)amino)cyclohexane-1,2,3,4-tetraol] | > 1000
[N-]=[N+]=Nc1ccc(NCCCCN[C@H]2C[C@](O)(CO)[C@@H](O)[C@H](O)[C@H]2O)c([N+](=O)[O-])c1 [Compound 8, (1S,2S,3R,4S,5S)-5-((4-((4-azido-2-nitrophenyl)amino)butyl)amino)-1-(hydroxymethyl)cyclohexane-1,2,3,4-tetraol] | > 1000
[N-]=[N+]=Nc1ccc(NCCCCCN[C@H]2C[C@](O)(CO)[C@@H](O)[C@H](O)[C@H]2O)c([N+](=O)[O-])c1 [Compound 9, (1S,2S,3R,4S,5S)-5-((5-((4-azido-2-nitrophenyl)amino)pentyl)amino)-1-(hydroxymethyl)cyclohexane-1,2,3,4-tetraol] | 103
[N-]=[N+]=Nc1ccc(NCCOCCN[C@H]2C[C@](O)(CO)[C@@H](O)[C@H](O)[C@H]2O)c([N+](=O)[O-])c1 [Compound 10, (1S,2S,3R,4S,5S)-5-((2-(2-((4-azido-2-nitrophenyl)amino)ethoxy)ethyl)amino)-1-(hydroxymethyl)cyclohexane-1,2,3,4-tetraol] | > 1000
O=C(O)CCCCN[C@H]1C[C@](O)(CO)[C@@H](O)[C@H](O)[C@H]1O [Compound 11, 5-(((1S,2S,3R,4S,5S)-2,3,4,5-tetrahydroxy-5-(hydroxymethyl)cyclohexyl)amino)pentanoic acid] | > 1000
N[C@H]1C[C@](O)(CO)[C@@H](O)[C@H](O)[C@H]1O [Valiolamine] | > 1000

From patent US12673924B2, “Valiolamine derivatives as glucosidase inhibitors” (Emergent Product Development Gaithersburg Inc., priority 2021, dated 2026)
